Here are results for one substance from patent publication US11723946B2, “Methods for regulating transcription of multiple genes and expression of multiple targets” (CHINA MEDICAL UNIVERSITY, priority 2014, dated 2023).

Test [1] concerns NF-κB. In words: Ex vivo bioluminescent imaging of organs, LPS-induced NF-κB/luc transgenic mice. The format is in vivo. The conditions noted are these: group 2 (LPS IP) vs group 1 (PBS blank); up-regulation. The method, then: The mice of the three groups manipulated in example 3 were abdominally injected with 150 mg/Kg luciferin. After luciferin injection for 5 minutes, the mice were sacrificed and the tissues including brain, heart, lung, liver, spleen, stomach, kidney, ovary and intestine were rapidly removed. The collected tissues were placed in the IVIS Imaging System-200 Series (Xenogen, Hopkinton, Mass.) and imaged with the same setting used for in vivo bioluminescent imaging.
In the table 2, the average of luciferin value in the mice of the group 2 was divided to average of luciferin value in the mice of the group 1 to obtain the fold change. In table 3, the average of luciferin value in the mice of the group 3 was divided to the average of luciferin value in the mice of the group 2 to obtain the fold change.

Test [2] deals with NF-κB. As to the kind of experiment: Whole animal bioluminescent imaging, LPS-induced NF-κB/luc transgenic mice. The test is classed as in vivo. The text has this:
Mice: The NF-κB/luc transgenic mice bearing the luciferase transgene driven by two copies of the NF-kappaB regulatory elements were mated with wild-type FVB mice to generate the hybrid NF-κB/luc transgenic offspring for the experiments. Whole animal bioluminescent imaging: 15 mice with age of 6˜8 weeks were randomly divided into three groups. The group 1 was the blank group; the group 2 was control group; and the group 3 was experimental group. The mice of the group 2 and the group 3 were administration with 100 ul of […] lipopolysaccharide (LSP) solution to induce the inflammation in the mice by intraperitoneal injection (IP injection). As the blank control, the mice of group 1 were administered with 100 μl of PBS by IP injection. After the LPS-injection for 5 minutes, the mice of the group 3 were further injected with 20 μl solution that contains 0.5 mg/Kg of the present polypeptide by IP injection. In contrast, the mice of the group 2 and the […] were injected with 20 μul of water. […] For in vivo imaging mice were anesthetized with isoflurane and injected intraperitoneally with 150 mg/kg luciferin. After 10 minutes, the mice were placed face up and imaged for 1 min with the camera set at the highest sensitivity by IVIS Imaging System-200 (Series Xenogen Hopkinton, Mass.). The photons emitted from the tissues were quantified by Living Images software (Xenogen, Hopkinton, Mass.) and were shown in FIG. 4A. In the FIG. 4A, the Y-axis shown the signal strength (photons/sec) that stands for total photons diffused from the mice.

In the case of “lipopolysaccharide [LPS, reference compound]”, in the test with NF-κB [1], the “Fold change of the luciferin value, Brain” value is recorded as 18.87 folds; the “Fold change of the luciferin value, Heart” value is listed as 6.03 folds; the “Fold change of the luciferin value, Intestine” value is 55.63 folds; the “Fold change of the luciferin value, Kidney” value is recorded as 93.78 folds. Besides, in the test on NF-κB [1], the “Fold change of the luciferin value, Liver” value was 4.06 folds; the “Fold change of the luciferin value, Lung” value is 11.90 folds; the “Fold change of the luciferin value, Ovary” value turned out to be 5.35 folds; the “Fold change of the luciferin value, Spleen” value turned out to be 5.57 folds. Moreover, the “Fold change of the luciferin value, Stomach” value in the test with NF-κB [1] worked out at 4.95 folds. Besides, the “increase of NF-κB-driven luminescent intensity” value in the test on NF-κB [2] (LPS group vs blank group) was “approximately 10.95 fold”. Moreover, the “average of luciferin value” with NF-κB [2] (group 2: LPS IP + water, 4 hours, blank group 1 2.92×10^7) was 31.97×10^7 photons/sec.
